{
  "source": "patent US20180179198A1",
  "about": "“TRICYCLIC MODULATORS OF TNF SIGNALING” (AbbVie Inc., priority 2015, published 2018)",
  "data": [
    {"biological_target": "TNFα trimer (Homo sapiens, UniProt P01375)", "sequence (P01375 77-233 limits assumed)": "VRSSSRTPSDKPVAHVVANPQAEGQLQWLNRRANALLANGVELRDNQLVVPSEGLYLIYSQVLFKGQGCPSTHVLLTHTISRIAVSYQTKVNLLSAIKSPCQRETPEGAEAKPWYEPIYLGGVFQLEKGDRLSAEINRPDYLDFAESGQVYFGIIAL", "experiment": "TNFα FP Competitive Binding Assay", "conditions": "fluorescence polarization competition; 20 nM TNFα trimer, 1 nM OregonGreen488 probe; read-out: TNF IC50 (TNFα FP binding assay IC50)", "summary_of_the_method": "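Fluorescence polarization displacement: 20 nM TNFα trimer (60 nM protein) with 1 nM fluorescein-labelled bis-isoquinoline probe in HEPES/NaCl/EDTA/Triton X-100 buffer. 12-point 1:3 compound series, top final 338 μM (3.4% DMSO) or 100 μM (2.0% DMSO); 18-24 h at 37 °C, then 1 h rt before background-subtracted mP read; variable-slope curve fit.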", "units": {"IC50": "nM"}, "values": [
      {"compound": "OC1CCN(c2ncc(-c3ccc4nc5n(c4n3)C3(COC5)COc4ccccc43)cn2)CC1", "note": "(centres unmarked) [Example 50, 1-(5-(6′,8′-Dihydro-2H-spiro[benzofuran-3,9′-pyrido[3′,2′:4,5]imidazo[2,1-c][1,4]oxazin]-2′-yl)pyrimidin-2-yl)piperidin-4-ol]", "IC50": "< 1000"},
      {"compound": "c1ccc2c(c1)OCC21COCc2nc3ccc(-c4cnc(N5CCOCC5)nc4)nc3n21", "note": "(centres unmarked) [Example 51, 2′-(2-Morpholinopyrimidin-5-yl)-6′,8′-dihydro-2H-spiro[benzofuran-3,9′-pyrido[3′,2′:4,5]imidazo[2,1-c][1,4]oxazine]]", "IC50": "< 1000"},
      {"compound": "OC1CCN(c2ncc(-c3ccc4nc5n(c4n3)C3(CCc4ccccc43)COC5)cn2)CC1", "note": "(centres unmarked) [Example 52]", "IC50": "< 1000"},
      {"compound": "O=c1cc(-c2ccc3nc4n(c3n2)[C@@H](c2ccccc2)CC4)ccn1CC1CCC(F)(F)CC1", "note": "[Example 53, (R)-1-((4,4-Difluorocyclohexyl)methyl)-4-(8-phenyl-7,8-dihydro-6H-pyrrolo[2′,1′:2,3]imidazo[4,5-b]pyridin-2-yl)pyridin-2(1H)-one]", "IC50": "1000 to 10000"},
      {"compound": "OC1CCC(Oc2cc(-c3ccc4nc5n(c4n3)C3(COC5)COc4ccccc43)ccn2)CC1", "note": "(centres unmarked) [Example 54, 4-((4-(6′,8′-dihydro-2H-spiro[benzofuran-3,9′-pyrido[3′,2′:4,5]imidazo[2,1-c][1,4]oxazin]-2′-yl)pyridin-2-yl)oxy)cyclohexanol]", "IC50": "< 1000"},
      {"compound": "OC1CCN(c2ncc(-c3nc4c(cc3F)nc3n4[C@@H](c4ccccc4)CC3)cn2)CC1", "note": "[Example 55, (R)-1-(5-(3-fluoro-8-phenyl-7,8-dihydro-6H-pyrrolo[2′,1′:2,3]imidazo[4,5-b]pyridin-2-yl)pyrimidin-2-yl)piperidin-4-ol]", "IC50": "< 1000"},
      {"compound": "c1ccc(C2OCCc3nc4ccc(-c5cnc(N6CCOCC6)nc5)nn4c32)cc1", "note": "(centres unmarked) [Example 56, 2-(2-morpholinopyrimidin-5-yl)-9-phenyl-7,9-dihydro-6H-pyrano[4′,3′:4,5]imidazo[1,2-b]pyridazine]", "IC50": "1000 to 10000"},
      {"compound": "COc1ccccc1C1CCOc2nc3ccc(-c4ccnc(O[C@H]5CC[C@H](O)CC5)c4)cn3c21", "note": "(stereo partly drawn) [Example 57, trans-4-((4-(4-(2-Methoxyphenyl)-3,4-dihydro-2H-pyrano[2′,3′:4,5]imidazo[1,2-a]pyridin-7-yl)pyridin-2-yl)oxy)cyclohexanol]", "IC50": "< 1000"},
      {"compound": "c1ccc2c(c1)OCCC21COCc2nc3ccc(-c4cnc(N5CCNCC5)nc4)nc3n21", "note": "(centres unmarked) [Example 59, 2′-(2-(Piperazin-1-yl)pyrimidin-5-yl)-6′H,8′H-spiro[chromane-4,9′-pyrido[3′,2′:4,5]imidazo[2,1-c][1,4]oxazine]]", "IC50": "1000 to 10000"},
      {"compound": "c1ccc2c(c1)OCCC21COCc2nc3ccc(-c4cnc(NC5CCOC5)nc4)nc3n21", "note": "(centres unmarked) [Example 60, 5-(6′H,8′H-Spiro[chromane-4,9′-pyrido[3′,2′:4,5]imidazo[2,1-c][1,4]oxazin]-2′-yl)-N-(tetrahydrofuran-3-yl)pyrimidin-2-amine]", "IC50": "1000 to 10000"},
      {"compound": "c1ccc([C@H]2CCc3nc4ccc(-c5ccnc(OCC6CCOCC6)c5)nc4n32)cc1", "note": "[Example 61, (R)-8-Phenyl-2-(2-((tetrahydro-2H-pyran-4-yl)methoxy)pyridin-4-yl)-7,8-dihydro-6H-pyrrolo[2′,1′:2,3]imidazo[4,5-b]pyridine]", "IC50": "1000 to 10000"},
      {"compound": "CC1(C)C=C(c2ccc3nc4n(c3n2)[C@@H](c2ccccc2)CC4)CN1", "note": "[Example 62]", "IC50": "10000 to 100000"},
      {"compound": "CC(C)(O)c1ncc(-c2ccc3nc4n(c3n2)C(c2ccccc2)C2CC4C2)cn1", "note": "(centres unmarked) [Example 63, 2-(5-(9-Phenyl-6,7,8,9-tetrahydro-6,8-methanoimidazo[1,2-a:5,4-b′]dipyridin-2-yl)pyrimidin-2-yl)propan-2-ol]", "IC50": "1000 to 10000"},
      {"compound": "OC1CCN(c2ncc(-c3ccc4nc5n(c4n3)C(c3ccccc3)C3CC5C3)cn2)CC1", "note": "(centres unmarked) [Example 64, 1-(5-(9-Phenyl-6,7,8,9-tetrahydro-6,8-methanoimidazo[1,2-a:5,4-b′]dipyridin-2-yl)pyrimidin-2-yl)piperidin-4-ol]", "IC50": "1000 to 10000"},
      {"compound": "CC1(C)C=C(c2ccc3nc4n(c3n2)C2(COC4)COc3ccccc32)CN1", "note": "(centres unmarked) [Example 65, 2′-(5,5-Dimethyl-2,5-dihydro-1H-pyrrol-3-yl)-6′,8′-dihydro-2H-spiro[benzofuran-3,9′-pyrido[3′,2′:4,5]imidazo[2,1-c][1,4]oxazine]]", "IC50": "1000 to 10000"},
      {"compound": "c1ccc2c(c1)OCC21COCc2nc3ccc(-c4cnc(N5CCNCC5)nc4)nc3n21", "note": "(centres unmarked) [Example 66, 2′-(2-(Piperazin-1-yl)pyrimidin-5-yl)-2H,6′H,8′H-spiro[benzofuran-3,9′-pyrido[3′,2′:4,5]imidazo[2,1-c][1,4]oxazine]]", "IC50": "1000 to 10000"},
      {"compound": "C[C@H]1CN(c2ncc(-c3ccc4nc5n(c4n3)C3(COC5)COc4ccccc43)cn2)CCN1C(=O)CO", "note": "(stereo partly drawn) [Example 67, 1-((2S)-4-(5-(2H,6′H,8′H-Spiro[benzofuran-3,9′-pyrido[3′,2′:4,5]imidazo[2,1-c][1,4]oxazin]-2′-yl)pyrimidin-2-yl)-2-methylpiperazin-1-yl)-2-hydroxyethan-1-one]", "IC50": "< 1000"},
      {"compound": "CC(C)(O)c1ncc(-c2ccc3nc4n(c3n2)C2(CCc3ccccc32)COC4)cn1", "note": "(centres unmarked) [Example 68, 2-(5-(2,3-Dihydro-6′H,8′H-spiro[indene-1,9′-pyrido[3′,2′:4,5]imidazo[2,1-c][1,4]oxazin]-2′-yl)pyrimidin-2-yl)propan-2-ol]", "IC50": "< 1000"},
      {"compound": "CC(C)(O)c1ncc(-c2ccc3nc4n(c3n2)C2(COC4)CC(=O)c3ccccc32)cn1", "note": "(centres unmarked) [Example 69, 2′-(2-(2-Hydroxypropan-2-yl)pyrimidin-5-yl)-6′,8′-dihydrospiro[indene-1,9′-pyrido[3′,2′:4,5]imidazo[2,1-c][1,4]oxazin]-3(2H)-one]", "IC50": "1000 to 10000"},
      {"compound": "CC(C)(O)c1ncc(-c2ccc3nc4n(c3n2)[C@@H](c2ccccc2)[C@@H]2C[C@H]4O2)cn1", "note": "[Example 70, 2-(5-((6R,8S,9S)-9-Phenyl-6,7,8,9-tetrahydro-6,8-epoxyimidazo[1,2-a:5,4-b′]dipyridin-2-yl)pyrimidin-2-yl)propan-2-ol]", "IC50": "10000 to 100000"},
      {"compound": "OC1CCN(c2ncc(-c3ccc4nc5n(c4n3)[C@@H](c3ccccc3)[C@@H]3C[C@H]5O3)cn2)CC1", "note": "[Example 71, 1-(5-((6R,8S,9S)-9-Phenyl-6,7,8,9-tetrahydro-6,8-epoxyimidazo[1,2-a:5,4-b′]dipyridin-2-yl)pyrimidin-2-yl)piperidin-4-ol]", "IC50": "10000 to 100000"},
      {"compound": "CC(C)(O)c1ncc(-c2ccc3nc4n(c3n2)C2(CCc3ccccc32)COC4O)cn1", "note": "(centres unmarked) [Example 72, 2′-(2-(2-Hydroxypropan-2-yl)pyrimidin-5-yl)-2,3-dihydro-6′H,8′H-spiro[indene-1,9′-pyrido[3′,2′:4,5]imidazo[2,1-c][1,4]oxazin]-6′-ol]", "IC50": "1000 to 10000"},
      {"compound": "C1=C(c2ccc3nc4n(c3n2)C2(COC4)COc3ccccc32)CCN(c2ccncn2)C1", "note": "(centres unmarked) [Example 73, 2′-(1-(Pyrimidin-4-yl)-1,2,3,6-tetrahydropyridin-4-yl)-2H,6′H,8′H-spiro[benzofuran-3,9′-pyrido[3′,2′:4,5]imidazo[2,1-c][1,4]oxazine]]", "IC50": "1000 to 10000"},
      {"compound": "O[C@H]1CC[C@H](Oc2cc(-c3ccc4nc5n(c4n3)[C@@]3(COC5)COc4ccccc43)ccn2)CC1", "note": "[Example 74, (1S,4r)-4-((4-((S)-6′,8′-Dihydro-2H-spiro[benzofuran-3,9′-pyrido[3′,2′:4,5]imidazo[2,1-c][1,4]oxazin]-2′-yl)pyridin-2-yl)oxy)cyclohexanol]", "IC50": "< 1000"},
      {"compound": "C[C@H]1CN(c2ncc(-c3ccc4nc5n(c4n3)[C@@]3(COC5)COc4ccccc43)cn2)CCN1C(=O)CO", "note": "[Example 75, 1-((S)-4-(5-((S)-6′,8′-Dihydro-2H-spiro[benzofuran-3,9′-pyrido[3′,2′:4,5]imidazo[2,1-c][1,4]oxazin]-2′-yl)pyrimidin-2-yl)-2-methylpiperazin-1-yl)-2-hydroxyethanone]", "IC50": "< 1000"},
      {"compound": "C1=C(c2ccc3nc4n(c3n2)[C@@H](c2ccccc2)CC4)CCN(c2ccncn2)C1", "note": "[Example 76, (R)-8-Phenyl-2-(1-(pyrimidin-4-yl)-1,2,3,6-tetrahydropyridin-4-yl)-7,8-dihydro-6H-pyrrolo[2′,1′:2,3]imidazo[4,5-b]pyridine]", "IC50": "1000 to 10000"},
      {"compound": "CC1(c2ccccc2)CCc2nc3ccc(-c4cnc(N5CCC(O)CC5)nc4)nc3n21", "note": "(centres unmarked) [Example 77, 1-(5-(8-Methyl-8-phenyl-7,8-dihydro-6H-pyrrolo[2′,1′:2,3]imidazo[4,5-b]pyridin-2-yl)pyrimidin-2-yl)piperidin-4-ol]", "IC50": "< 1000"},
      {"compound": "CC(C)(N)c1ncc(-c2ccc3nc4n(c3n2)C2(CCc3ccccc32)COC4)cn1", "note": "(centres unmarked) [Example 80, 2-(5-(2,3-Dihydro-6′H,8′H-spiro[indene-1,9′-pyrido[3′,2′:4,5]imidazo[2,1-c][1,4]oxazin]-2′-yl)pyrimidin-2-yl)propan-2-amine]", "IC50": "< 1000"},
      {"compound": "CC(C)(O)c1ncc(-c2ccc3nc4n(c3n2)C2(COC4)CC(O)c3ccccc32)cn1", "note": "(centres unmarked) [Example 81, 2′-(2-(2-Hydroxypropan-2-yl)pyrimidin-5-yl)-2,3,6′,8′-tetrahydrospiro[indene-1,9′-pyrido[3′,2′:4,5]imidazo[2,1-c][1,4]oxazin]-3-ol]", "IC50": "1000 to 10000"},
      {"compound": "FC1(F)CCN(c2ncc(-c3ccc4nc5n(c4n3)C(c3ccccc3)COC5)cn2)CC1", "note": "(centres unmarked) [Example 82]", "IC50": "< 1000"},
      {"compound": "O[C@H]1CC[C@H](Oc2cc(-c3ccc4nc5n(c4n3)[C@@H](c3ccccc3)CC5)ccn2)CC1", "note": "[Example 83, (1R,4R)-4-((4-((R)-8-Phenyl-7,8-dihydro-6H-pyrrolo[2′,1′:2,3]imidazo[4,5-b]pyridin-2-yl)pyridin-2-yl)oxy)cyclohexanol]", "IC50": "< 1000"},
      {"compound": "OC1CC2(CCN(c3ncc(-c4ccc5nc6n(c5c4)[C@@H](c4ccccc4)CC6)cn3)CC2)C1", "note": "[F.1]", "IC50": "< 1000"},
      {"compound": "OC1CCN(c2ncc(-c3ccc4nc5n(c4c3)[C@@H](c3ccccc3)CC5)cn2)CC1(F)F", "note": "(some centres unmarked) [F.2]", "IC50": "< 1000"},
      {"compound": "OC1CCN(c2ncc(-c3ccc4nc5n(c4c3)[C@@H](c3ccccc3)CC5)cn2)CC1", "note": "[F.3]", "IC50": "< 1000"},
      {"compound": "O=S1(=O)CCN(c2ncc(-c3ccc4nc5n(c4c3)[C@@H](c3ccccc3)CC5)cn2)CC1", "note": "[F.4]", "IC50": "< 1000"}
    ]}
  ]
}
